Values joined by “and” are separate entries in the source; they are usually repeats but may differ in a detail not shown here. Identical values can stand only once. One block for each compound: values may come before it.
Tests used:
S180 tumor = tested on: S180 tumor; parameters: species or system female Balb/c mice; conditions: mouse, in vivo
[1] = tested on: Ehrlich Ascites Cancer (EAC) tumor; parameters: species or system female Kunming mice; conditions: mouse, in vivo
4T1 murine breast tumor = 4T1 murine breast tumor model (Example 3); assay type: in vivo, female Balb/c mice
Experimental: 1.1 Female Balb/c mice (6 weeks old, body weight 17.2±0.1 g) were obtained from Shanghai SIPPR-BK Laboratory Animal Co. Ltd.
The murine breast cancer cancer cell line 4T1 was obtained from American Type Culture Collection (ATCC), and maintained by HD Biosciences. Cells were maintained in DMEM with 10% fetal bovine serum in a atmosphere of 5% CO2 at 37° C. Passaging ratio was between 1:5 and 1:8, at the frequency of 3 to 4 times per week.
4T1 murine breast tumor model was established in female Balb/c mice by subcutaneous inoculation with 1×10^6 cells per animal. The rate of tumor formation was 100%. Three days post cell inoculation, the cell inoculated mice were randomly sorted into treatment groups by weight. Animals in each group were administered according to Table 2.
There were 4 groups: Vehicle group, Docetaxel group, YS-ON-001 low dose group, and YS-ON-001 high dose group.
2. The Studies were Terminated when the Average Tumor Volume in Vehicle Group Reached 2500 mm^3
3. At the end of study, the tumor mass was removed and photographed. The tumor weight was recorded. The thymus and spleen was removed and weighed. And then, the organ index was calculated.
III. Observational Indices: Same as in Example 2 Section III.
Data were reported as Mean±SEM. Comparison between groups was analysed using ANOVA.

[2] = tested on: LL/2 murine Lewis lung tumor
[3] = Docetaxel 10 mg/kg i.v. QW, total 3 dosing, end of study
[4] = Cisplatin 5 mg/kg i.v. QW, total 3 dosing, end of study

Compound: O=P1(N(CCCl)CCCl)NCCCO1 (centres unmarked) [CTX, Cyclophosphamide]
Tumor growth (tumor volume) compared with saline control group (S180 tumor): significantly inhibited the tumor growth
Tumor weight compared with saline control group (S180 tumor): significantly decreased tumor weight
Day on which all mice were dead [1]: 30 days
Day on which death was first observed [1]: 27 days
Median duration (to death) [1]: 29 days and 34.5 days

Spleen weight compared to vehicle group (4T1 murine breast tumor; end of study, doses of Table 2): significantly reduced
Thymus weight and thymus index compared to vehicle group (4T1 murine breast tumor; end of study, doses of Table 2): significantly reduced
Spleen index compared to vehicle group (4T1 murine breast tumor; end of study, doses of Table 2, YS-ON-001 p<0.01 low dose, p<0.05 high dose): significantly reduced
Compound: CC(=O)O[C@@]12CO[C@@H]1C[C@H](O)[C@@]1(C)C(=O)[C@H](O)C3=C(C)[C@@H](OC(=O)[C@H](O)[C@@H](NC(=O)OC(C)(C)C)c4ccccc4)C[C@@](O)([C@@H](OC(=O)c4ccccc4)[C@H]21)C3(C)C [Docetaxel]
Relative tumor proliferation rate T/C (4T1 murine breast tumor; [3]): 50.12%
Tumor inhibition rate (tumor weight) (4T1 murine breast tumor; [3]): 35.55%
Body weight compared to vehicle group (4T1 murine breast tumor; Docetaxel 10 mg/kg, Day 8 and Day 13 to end of study, p<0.01): significantly affected
Body weight change compared to vehicle group (4T1 murine breast tumor; Docetaxel: Day 4 to end, two YS-ON-001 groups: Day 4 and Day 15 to end): significantly reduced

Compound: N.N.[Cl][Pt][Cl] [Cisplatin]
Relative tumor proliferation rate T/C [2, 4]: 53.04%
Tumor inhibition rate (tumor weight) [2, 4]: 29.46%
Spleen index compared to vehicle group ([2]; mouse, in vivo): trend of reducing which is not significant
Spleen weight compared to vehicle group ([2]; mouse, in vivo): significantly reduced
Thymus weight and thymus index compared to vehicle group ([2]; mouse, in vivo): significantly reduced
Number of lung metastases compared with vehicle group (B16F10 metastasis tumor; day 15, Cisplatin 5 mg/kg i.v. Q4D, YS-ON-001 200 μg/0.2 mL/mice/dose i.m./s.c. BID, p<0.01): significantly decreased
Spleen weight and spleen index compared with vehicle group (B16F10 metastasis tumor; mouse, in vivo): not affected
Thymus weight and thymus index compared with vehicle group (B16F10 metastasis tumor; mouse, in vivo): significantly decreased

From patent publication US11911467B2, “Composition comprising PIC for treatment of cancer” (Yisheng Biopharma (Singapore) PTE LTD, priority 2016, dated 2024)
